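Method: 48-hour compound exposure of cells in 96-well plates, five concentrations, linear interpolation of endpoints. At the GI50, growth is halved.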 Calls of active or inactive are those of the source. Cut-off read from the data, not from the text of the source: active = GI50 up to about 1.1 µM and inactive = higher.
Tests used:
Assay in all cases: inhibition of tumour cell growth, NCI panel, 48 h
786-0 = system: 786-0
A498 = system: A498
ACHN = system: ACHN
COLO 205 = system: COLO 205
HCT-15 = system: HCT-15
HL-60 = system: HL-60
HOP-92 = system: HOP-92
KM12 = system: KM12
LOX IMVI = system: LOX IMVI
Malme-3M = system: Malme-3M
NCI-H460 = system: NCI-H460
OVCAR-4 = system: OVCAR-4
RXF 393 = system: RXF 393
SF-295 = system: SF-295
SK-MEL-2 = system: SK-MEL-2
SK-OV-3 = system: SK-OV-3
SN12C = system: SN12C
SNB-19 = system: SNB-19
SNB-75 = system: SNB-75
UO-31 = system: UO-31

For `C=C1C(=O)O[C@H]2C[C@@]3(C)[C@H](O)CCC(=C)[C@@H]3[C@@H](OC(C)=O)[C@H]12`, the GI50 (786-0) was 5.85 µM (inactive), the GI50 (A498) was 17.8 µM (inactive) and the GI50 (ACHN) was 3.53 µM (inactive). The GI50 (COLO 205) was 953 nM (active), the GI50 (HCT-15) was 1850 nM and the GI50 (HL-60) was 2.19 µM (inactive). The GI50 (HOP-92) was 2.71 µM (inactive), the GI50 (KM12) was 16.4 µM (inactive) and the GI50 (LOX IMVI) was 5.43 µM (inactive). The GI50 (Malme-3M) was 1.45 µM (inactive), the GI50 (NCI-H460) was 13.1 µM (inactive) and the GI50 (OVCAR-4) was 4.85 µM (inactive). The GI50 (RXF 393) was 3.56 µM (inactive), the GI50 (SF-295) was 18.9 µM (inactive) and the GI50 (SK-MEL-2) was 15.9 µM (inactive). The GI50 (SK-OV-3) was 30.2 µM (inactive), the GI50 (SN12C) was 7.83 µM (inactive) and the GI50 (SNB-19) was 12.9 µM (inactive). For the same compound, the GI50 (SNB-75) was 13.1 µM (inactive) and the GI50 (UO-31) was 13.5 µM (inactive).

From ChEMBL document CHEMBL1201862, “PubChem BioAssay data set” (2004)
